# Measurements: the supplement of paper PMC10307832
# Experiments:
# Assay in all cases: relative viability (nuclei count vs DMSO), 5 days (fraction); higher = more cells survive
# Linsitinib + Phenformin = compound: C[C@]1(O)C[C@@H](c2nc(-c3ccc4ccc(-c5ccccc5)nc4c3)c3c(N)nccn32)C1 [Linsitinib] + N=C(N)NC(=N)NCCc1ccccc1 [Phenformin] (partner 250 µM)
# Procedure, shortened: (§1)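 Relative viability divides the nuclei count in treated wells by that in vehicle wells. Lung cancer cell lines were seeded in 1536-well plates, dosed by pin tool the next day, and fixed and stained after 5 days in one step with final 0.05% Triton X-100, 1% formaldehyde and 1 ug/ml Hoechst. Dosing was a single drug or a fixed anchor-drug dose plus five library-drug doses (not always all listed) in √10 steps, and values are medians of duplicate plates imaged at 4×.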
# Linsitinib + Vorinostat = compound: C[C@]1(O)C[C@@H](c2nc(-c3ccc4ccc(-c5ccccc5)nc4c3)c3c(N)nccn32)C1 [Linsitinib] + O=C(CCCCCCC(=O)Nc1ccccc1)NO [Vorinostat] (partner 1 µM)
# Procedure, shortened: as §1
# Ispinesib + Luminespib = compound: Cc1ccc(C(=O)N(CCCN)[C@@H](c2nc3cc(Cl)ccc3c(=O)n2Cc2ccccc2)C(C)C)cc1 [Ispinesib] + CCNC(=O)c1noc(-c2cc(C(C)C)c(O)cc2O)c1-c1ccc(CN2CCOCC2)cc1 [Luminespib] (partner 0.01 µM)
# Procedure, shortened: as §1
# Ispinesib + Phenformin = compound: Cc1ccc(C(=O)N(CCCN)[C@@H](c2nc3cc(Cl)ccc3c(=O)n2Cc2ccccc2)C(C)C)cc1 [Ispinesib] + N=C(N)NC(=N)NCCc1ccccc1 [Phenformin] (partner 250 µM)
# Procedure, shortened: as §1
cell line,measurement,setting,value
COR-L23,relative viability,Linsitinib + Phenformin; first compound 0.01 µM,0.434
same,relative viability,Linsitinib + Phenformin; first compound 0.03162 µM,0.414
same,relative viability,Linsitinib + Phenformin; first compound 0.1 µM,0.467
same,relative viability,Linsitinib + Phenformin; first compound 0.3162 µM,0.347
same,relative viability,Linsitinib + Phenformin; first compound 1 µM,0.469
same,relative viability,Linsitinib + Vorinostat; first compound 0.01 µM,0.431
same,relative viability,Linsitinib + Vorinostat; first compound 0.03162 µM,0.267
same,relative viability,Linsitinib + Vorinostat; first compound 0.1 µM,0.402
same,relative viability,Linsitinib + Vorinostat; first compound 0.3162 µM,0.357
same,relative viability,Linsitinib + Vorinostat; first compound 1 µM,0.302
same,relative viability,Ispinesib + Luminespib; first compound 0.001 µM,0.805
same,relative viability,Ispinesib + Luminespib; first compound 0.003162 µM,0.815
same,relative viability,Ispinesib + Luminespib; first compound 0.01 µM,0.824
same,relative viability,Ispinesib + Luminespib; first compound 0.03162 µM,0.356
same,relative viability,Ispinesib + Luminespib; first compound 0.1 µM,0.215
same,relative viability,Ispinesib + Phenformin; first compound 0.001 µM,0.437
same,relative viability,Ispinesib + Phenformin; first compound 0.003162 µM,0.444
same,relative viability,Ispinesib + Phenformin; first compound 0.01 µM,0.448
same,relative viability,Ispinesib + Phenformin; first compound 0.03162 µM,0.123
same,relative viability,Ispinesib + Phenformin; first compound 0.1 µM,0.133
NCI-H3122,relative viability,Linsitinib + Phenformin; first compound 0.01 µM,0.378
same,relative viability,Linsitinib + Phenformin; first compound 0.03162 µM,0.352
same,relative viability,Linsitinib + Phenformin; first compound 0.1 µM,0.309
same,relative viability,Linsitinib + Phenformin; first compound 1 µM,0.335
same,relative viability,Linsitinib + Vorinostat; first compound 0.01 µM,0.966
same,relative viability,Linsitinib + Vorinostat; first compound 0.03162 µM,0.921
same,relative viability,Linsitinib + Vorinostat; first compound 0.1 µM,0.98
same,relative viability,Linsitinib + Vorinostat; first compound 1 µM,0.702
same,relative viability,Ispinesib + Luminespib; first compound 0.001 µM,0.105
same,relative viability,Ispinesib + Luminespib; first compound 0.003162 µM,0.12
same,relative viability,Ispinesib + Luminespib; first compound 0.01 µM,0.0892
same,relative viability,Ispinesib + Luminespib; first compound 0.03162 µM,0.0855
same,relative viability,Ispinesib + Luminespib; first compound 0.1 µM,0.0889
same,relative viability,Ispinesib + Phenformin; first compound 0.001 µM,0.384
same,relative viability,Ispinesib + Phenformin; first compound 0.003162 µM,0.408
same,relative viability,Ispinesib + Phenformin; first compound 0.01 µM,0.856
same,relative viability,Ispinesib + Phenformin; first compound 0.03162 µM,0.197
same,relative viability,Ispinesib + Phenformin; first compound 0.1 µM,0.108
NCI-H2170,relative viability,Linsitinib + Phenformin; first compound 0.01 µM,0.432
same,relative viability,Linsitinib + Phenformin; first compound 0.03162 µM,0.379
same,relative viability,Linsitinib + Phenformin; first compound 0.1 µM,0.364
same,relative viability,Linsitinib + Phenformin; first compound 0.3162 µM,0.24
same,relative viability,Linsitinib + Phenformin; first compound 1 µM,0.348
same,relative viability,Linsitinib + Vorinostat; first compound 0.01 µM,0.771
same,relative viability,Linsitinib + Vorinostat; first compound 0.03162 µM,0.771
same,relative viability,Linsitinib + Vorinostat; first compound 0.1 µM,0.753
same,relative viability,Linsitinib + Vorinostat; first compound 1 µM,0.696
same,relative viability,Ispinesib + Luminespib; first compound 0.001 µM,0.74
same,relative viability,Ispinesib + Luminespib; first compound 0.003162 µM,0.53
same,relative viability,Ispinesib + Luminespib; first compound 0.01 µM,0.964
same,relative viability,Ispinesib + Luminespib; first compound 0.03162 µM,0.351
same,relative viability,Ispinesib + Luminespib; first compound 0.1 µM,0.448
same,relative viability,Ispinesib + Phenformin; first compound 0.001 µM,0.429
same,relative viability,Ispinesib + Phenformin; first compound 0.003162 µM,0.462
same,relative viability,Ispinesib + Phenformin; first compound 0.01 µM,0.401
same,relative viability,Ispinesib + Phenformin; first compound 0.03162 µM,0.281
same,relative viability,Ispinesib + Phenformin; first compound 0.1 µM,0.178
NCI-H1793,relative viability,Linsitinib + Phenformin; first compound 0.01 µM,0.362
same,relative viability,Linsitinib + Phenformin; first compound 0.03162 µM,0.373
same,relative viability,Linsitinib + Phenformin; first compound 0.1 µM,0.369
same,relative viability,Linsitinib + Phenformin; first compound 0.3162 µM,0.271
same,relative viability,Linsitinib + Phenformin; first compound 1 µM,0.282
same,relative viability,Linsitinib + Vorinostat; first compound 0.01 µM,0.816
same,relative viability,Linsitinib + Vorinostat; first compound 0.03162 µM,0.749
same,relative viability,Linsitinib + Vorinostat; first compound 0.1 µM,0.705
same,relative viability,Linsitinib + Vorinostat; first compound 0.3162 µM,0.536
same,relative viability,Linsitinib + Vorinostat; first compound 1 µM,0.433
same,relative viability,Ispinesib + Luminespib; first compound 0.001 µM,0.198
same,relative viability,Ispinesib + Luminespib; first compound 0.003162 µM,0.169
same,relative viability,Ispinesib + Luminespib; first compound 0.01 µM,0.749
same,relative viability,Ispinesib + Luminespib; first compound 0.03162 µM,0.144
same,relative viability,Ispinesib + Luminespib; first compound 0.1 µM,0.162
same,relative viability,Ispinesib + Phenformin; first compound 0.001 µM,0.375
same,relative viability,Ispinesib + Phenformin; first compound 0.003162 µM,0.357
same,relative viability,Ispinesib + Phenformin; first compound 0.01 µM,0.448
same,relative viability,Ispinesib + Phenformin; first compound 0.03162 µM,0.278
same,relative viability,Ispinesib + Phenformin; first compound 0.1 µM,0.133
BEN,relative viability,Linsitinib + Phenformin; first compound 0.01 µM,0.28
same,relative viability,Linsitinib + Phenformin; first compound 0.03162 µM,0.24
same,relative viability,Linsitinib + Phenformin; first compound 0.1 µM,0.245
same,relative viability,Linsitinib + Phenformin; first compound 1 µM,0.292
same,relative viability,Linsitinib + Vorinostat; first compound 0.01 µM,0.513
same,relative viability,Linsitinib + Vorinostat; first compound 0.03162 µM,0.573
same,relative viability,Linsitinib + Vorinostat; first compound 0.1 µM,0.534
same,relative viability,Linsitinib + Vorinostat; first compound 0.3162 µM,0.434
same,relative viability,Linsitinib + Vorinostat; first compound 1 µM,0.474
same,relative viability,Ispinesib + Luminespib; first compound 0.001 µM,0.617
same,relative viability,Ispinesib + Luminespib; first compound 0.003162 µM,0.576
same,relative viability,Ispinesib + Luminespib; first compound 0.01 µM,0.237
same,relative viability,Ispinesib + Luminespib; first compound 0.03162 µM,0.247
same,relative viability,Ispinesib + Luminespib; first compound 0.1 µM,0.234
same,relative viability,Ispinesib + Phenformin; first compound 0.001 µM,0.243
same,relative viability,Ispinesib + Phenformin; first compound 0.003162 µM,0.27
same,relative viability,Ispinesib + Phenformin; first compound 0.01 µM,0.252
same,relative viability,Ispinesib + Phenformin; first compound 0.03162 µM,0.27
same,relative viability,Ispinesib + Phenformin; first compound 0.1 µM,0.203
NCI-H647,relative viability,Linsitinib + Phenformin; first compound 0.01 µM,0.524
same,relative viability,Linsitinib + Phenformin; first compound 0.03162 µM,0.464
same,relative viability,Linsitinib + Phenformin; first compound 0.1 µM,0.537
same,relative viability,Linsitinib + Phenformin; first compound 1 µM,0.438
same,relative viability,Linsitinib + Vorinostat; first compound 0.01 µM,0.57
same,relative viability,Linsitinib + Vorinostat; first compound 0.03162 µM,0.583
same,relative viability,Linsitinib + Vorinostat; first compound 0.1 µM,0.458
same,relative viability,Linsitinib + Vorinostat; first compound 0.3162 µM,0.368
same,relative viability,Linsitinib + Vorinostat; first compound 1 µM,0.646
same,relative viability,Ispinesib + Luminespib; first compound 0.001 µM,0.172
same,relative viability,Ispinesib + Luminespib; first compound 0.003162 µM,0.28
same,relative viability,Ispinesib + Luminespib; first compound 0.01 µM,0.233
same,relative viability,Ispinesib + Luminespib; first compound 0.03162 µM,0.229
same,relative viability,Ispinesib + Luminespib; first compound 0.1 µM,0.151
same,relative viability,Ispinesib + Phenformin; first compound 0.001 µM,0.609
same,relative viability,Ispinesib + Phenformin; first compound 0.003162 µM,0.476
same,relative viability,Ispinesib + Phenformin; first compound 0.01 µM,0.52
same,relative viability,Ispinesib + Phenformin; first compound 0.03162 µM,0.0907
same,relative viability,Ispinesib + Phenformin; first compound 0.1 µM,0.126
PC-14,relative viability,Linsitinib + Phenformin; first compound 0.01 µM,0.623
same,relative viability,Linsitinib + Phenformin; first compound 0.03162 µM,0.523
same,relative viability,Linsitinib + Phenformin; first compound 0.1 µM,0.58
same,relative viability,Linsitinib + Phenformin; first compound 0.3162 µM,0.533
same,relative viability,Linsitinib + Phenformin; first compound 1 µM,0.395
same,relative viability,Linsitinib + Vorinostat; first compound 0.01 µM,0.668
same,relative viability,Linsitinib + Vorinostat; first compound 0.03162 µM,0.566
same,relative viability,Linsitinib + Vorinostat; first compound 0.1 µM,0.808
same,relative viability,Linsitinib + Vorinostat; first compound 0.3162 µM,0.517
same,relative viability,Linsitinib + Vorinostat; first compound 1 µM,0.52
same,relative viability,Ispinesib + Luminespib; first compound 0.001 µM,0.168
same,relative viability,Ispinesib + Luminespib; first compound 0.003162 µM,0.13
same,relative viability,Ispinesib + Luminespib; first compound 0.01 µM,0.131
same,relative viability,Ispinesib + Luminespib; first compound 0.03162 µM,0.131
same,relative viability,Ispinesib + Luminespib; first compound 0.1 µM,0.125
same,relative viability,Ispinesib + Phenformin; first compound 0.001 µM,0.607
same,relative viability,Ispinesib + Phenformin; first compound 0.003162 µM,0.755
same,relative viability,Ispinesib + Phenformin; first compound 0.01 µM,0.338
same,relative viability,Ispinesib + Phenformin; first compound 0.03162 µM,0.122
same,relative viability,Ispinesib + Phenformin; first compound 0.1 µM,0.0821
